These results are taken from ChEMBL document CHEMBL1201862, “PubChem BioAssay data set” (2004).

Assay in all cases: NCI-60 cell line screen, 48 h
Experiment [1] has as its system NCI-H460.
The test system of experiment [2] is SF-268.
The subject of experiment [3] is OVCAR-3.
The test system of experiment [4] is HCT-15.
The test system of experiment [5] is K562.
The subject of experiment [6] is SF-539.
Experiment [7] concerns SW-620.
Experiment [8] deals with HOP-92.
Experiment [9] has as its system MOLT-4.
Experiment [10] deals with SNB-19.
Experiment [11] has as its system 786-0.
Experiment [12] relates to RXF 393.
In experiment [13] the test system is CAKI-1.
For experiment [14], the system named is SN12C.
Experiment [15] concerns KM12.
The test system of experiment [16] is Malme-3M.
The test system of experiment [17] is U-251.
The test system of experiment [18] is SK-MEL-28.
In experiment [19] the test system is NCI-H522.

Structures are written as SMILES.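 Method: 48-hour compound exposure of cells in 96-well plates, five concentrations, linear interpolation of endpoints. At the GI50, growth is halved.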 Activity calls are given as the source filed them. Cut-off read from the data, not from the text of the source: active = GI50 up to about 1.1 µM and inactive = higher.

As for `CC1C[C@H](OC(N)=O)C(C)CC1=O` (stereo partly specified), the GI50 in experiment [1] was > 100 µM (inactive); in experiment [2], > 100 µM (inactive); in [3], > 100 µM (inactive); in [4], greater than 100 µM; in experiment [5] it was > 100 µM (inactive); in [6] it was > 100 µM (inactive). For the same molecule, the GI50 in [7] is > 100 µM (inactive); in [8] it was 30.2 µM (inactive); in experiment [9] it was > 100 µM (inactive); in experiment [10] it was > 100 µM (inactive); in experiment [11], > 100 µM (inactive); in experiment [12], > 100 µM (inactive). Further, the GI50 in experiment [13], in experiment [14], in experiment [15], in [16] and in experiment [17] was > 100 µM (inactive) throughout.

Consider `C/C(CCc1ccccc1)=N\NC(N)=S`, for which the GI50 was > 100 µM (inactive) in experiment [1]; > 100 µM (inactive) in experiment [2]; > 100 µM (inactive) in experiment [3]; greater than 100 µM in [4]; > 100 µM (inactive) in experiment [5]; 37.2 µM (inactive) in experiment [6]. Also, the GI50 in experiment [7] is > 100 µM (inactive); in experiment [8] it was > 100 µM (inactive); in experiment [9], 72.8 µM (inactive); in experiment [11], > 100 µM (inactive); in [12] it was 42.3 µM (inactive); in experiment [18], > 100 µM (inactive). For the same molecule, the GI50 in experiment [13], in [14], in [15], in experiment [16] and in [17] was > 100 µM (inactive) each time.

With `CN1CCS(=O)(=O)NC(Cc2ccccc2)C(=O)N2CCCC2C1=O` (stereo unspecified), the GI50 in experiment [2] is > 100 µM (inactive); in [3], > 100 µM (inactive); in experiment [4], greater than 100 µM; in [5], > 100 µM (inactive); in [19] it was > 100 µM (inactive); in experiment [6], > 100 µM (inactive). In addition, the GI50 in [7], in experiment [9], in experiment [10], in experiment [11], in experiment [18] and in [13] was > 100 µM (inactive) in each case. Besides, the GI50 in [14], in experiment [15], in experiment [16] and in [17] was > 100 µM (inactive) throughout.

As for `COC(=O)C(CCC1(C)OCCO1)C(C)=O` (stereo unspecified), the GI50 in [1] was > 100 µM (inactive); in [2], > 100 µM (inactive); in experiment [3] it was > 100 µM (inactive); in experiment [4] it was greater than 100 µM; in experiment [5] it was > 100 µM (inactive); in [19], > 100 µM (inactive). Besides, the GI50 in experiment [6], in experiment [7], in [9], in experiment [10], in [11] and in experiment [12] was > 100 µM (inactive) throughout. The GI50 in [18], in experiment [14], in [15], in experiment [16] and in [17] was > 100 µM (inactive) throughout.

Turning to `CCCCOC(=O)CNC(=O)OCCCCC#CC#CCCCCOC(=O)NCC(=O)OCCCC`, the GI50 was > 100 µM (inactive) in experiment [1]; > 100 µM (inactive) in experiment [2]; > 100 µM (inactive) in [5]; 76.7 µM (inactive) in [19]; > 100 µM (inactive) in experiment [6]; > 100 µM (inactive) in experiment [7]. Also, the GI50 in [9], in experiment [10], in [11], in [13], in experiment [14] and in [15] was > 100 µM (inactive) in each case. For the same molecule, the GI50 in experiment [16] and in experiment [17] was > 100 µM (inactive) each time.

For `COc1ccccc1/C=C1\CCC(CCN2CCOCC2)C1=O` (stereo unspecified), the GI50 in experiment [1] is 90.8 µM (inactive); in experiment [2], > 100 µM (inactive); in [3] it was > 100 µM (inactive); in [4] it was 91.8 µM; in experiment [5], 41.1 µM (inactive); in experiment [6], > 100 µM (inactive). For the same molecule, the GI50 in [7] is > 100 µM (inactive); in experiment [8], > 100 µM (inactive); in experiment [9], 48.1 µM (inactive); in experiment [10], > 100 µM (inactive); in [11], > 100 µM (inactive); in experiment [12], 59.8 µM (inactive). Also, the GI50 in experiment [18], in [13], in experiment [14], in [15] and in [16] was > 100 µM (inactive) in each case.

Turning to `Cc1ccccc1CN1CC=c2ccccc2=N1`, the GI50 in [1] is > 100 µM (inactive); in experiment [2], > 100 µM (inactive); in experiment [3], > 100 µM (inactive); in [4], greater than 100 µM; in experiment [5] it was > 100 µM (inactive); in [6], > 100 µM (inactive). The GI50 in [7], in experiment [8], in experiment [10], in experiment [11], in experiment [18] and in experiment [13] was > 100 µM (inactive) each time. Besides, the GI50 in experiment [14], in experiment [15], in [16] and in experiment [17] was > 100 µM (inactive) throughout.

Take `S=C(Nc1ccccc1)N1N=C2c3ccccc3CC[C@H]2[C@@H]1c1ccccc1`: the GI50 was 3.64 µM (inactive) in experiment [1]; 12.9 µM (inactive) in experiment [2]; 1.88 µM (inactive) in experiment [3]; 2.02 µM in [4]; 0.607 µM (active) in experiment [5]; 0.581 µM (active) in experiment [19]. For the same molecule, the GI50 was 5.87 µM (inactive) in experiment [6]; 2.4 µM (inactive) in experiment [7]; 4 µM (inactive) in experiment [9]; 9.18 µM (inactive) in [10]; 4.31 µM (inactive) in [11]; 2.12 µM (inactive) in experiment [12]. Further, the GI50 is 8.09 µM (inactive) in [18]; 37.2 µM (inactive) in experiment [14]; 2.79 µM (inactive) in experiment [15]; > 100 µM (inactive) in [16]; 7.59 µM (inactive) in experiment [17].

Turning to `O=C1[C@@H]2C(c3ccc(Cl)cc3Cl)=NO[C@@H]2C(=O)N1c1ccc(Cc2ccc(N3C(=O)[C@H]4C(c5ccc(Cl)cc5Cl)=NO[C@H]4C3=O)cc2)cc1`, the GI50 was > 100 µM (inactive) in experiment [2]; 61 µM (inactive) in experiment [3]; 46.6 µM in experiment [4]; 29.3 µM (inactive) in experiment [5]; 52.7 µM (inactive) in experiment [6]; 71.8 µM (inactive) in experiment [7]. The GI50 was 17.7 µM (inactive) in experiment [8]; 17.3 µM (inactive) in experiment [9]; 45.9 µM (inactive) in experiment [11]; 13.6 µM (inactive) in experiment [12]; 67.1 µM (inactive) in experiment [18]; 60.4 µM (inactive) in experiment [13]. The GI50 in [14] is 54 µM (inactive); in [15], > 100 µM (inactive); in experiment [16], 84.3 µM (inactive).
